Results taken from patent publication US20060069132A1, “Azolecarboxamide herbicides” (priority 2004, published 2006).

Assays:
barnyardgrass [1] = assay: Test A pre-/postemergence herbicide test; assay type: in vivo, Echinochloa crus-galli
Method in brief: (§1)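 Greenhouse injury scoring (0–100, complete control = 100) at approximately ten days follows simultaneous pre- and postemergence application. Soil received a directed spray after seeding; seedlings of 2–10 cm at the one- to two-leaf stage were sprayed to runoff.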

large crabgrass [2] = assay: Test A pre-/postemergence herbicide test; assay type: in vivo, Digitaria sanguinalis
Method in brief: as §1

giant foxtail [3] = assay: Test A pre-/postemergence herbicide test; assay type: in vivo, Setaria faberi
Method in brief: as §1

morningglory [4] = assay: Test A pre-/postemergence herbicide test; assay type: in vivo, Ipomoea spp.
Method in brief: as §1

redroot pigweed = assay: Test A pre-/postemergence herbicide test; assay type: in vivo, Amaranthus retroflexus
Method in brief: as §1

velvetleaf [5] = assay: Test A pre-/postemergence herbicide test; assay type: in vivo, Abutilon theophrasti
Method in brief: as §1

barnyardgrass [6] = assay: Test B pre-/postemergence herbicide test; assay type: in vivo, Echinochloa crus-galli; conditions: for Barnyardgrass plant response rating: postemergence
Method in brief: (§2)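 Seeds were planted and treated preemergence with compounds formulated in a non-phytotoxic solvent mixture containing surfactant, while plants at the 1- to 4-leaf stage (2 to 18 cm) received postemergence sprays. Flooded paddy plants were grown to the 2-leaf stage. After 13 to 15 days in a greenhouse, injury was visually rated 0–100 against untreated controls.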

Surinam grass = assay: Test B pre-/postemergence herbicide test; assay type: in vivo, Urochloa decumbens; conditions: for Surinam Grass plant response rating: postemergence
Method in brief: (§3)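 Greenhouse pot assay with simultaneous preemergence (treated seed) and postemergence (2–18 cm seedlings) applications of surfactant-containing, non-phytotoxic solvent formulations. Response scored visually 13–15 days later on a 0–100 scale, 100 meaning complete control.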

cocklebur = assay: Test B pre-/postemergence herbicide test; assay type: in vivo, Xanthium strumarium; conditions: for Cocklebur plant response rating: postemergence
Method in brief: as §2

corn = assay: Test B pre-/postemergence herbicide test; assay type: in vivo, Zea mays; conditions: for Corn plant response rating: postemergence
Method in brief: as §3

large crabgrass [7] = assay: Test B pre-/postemergence herbicide test; assay type: in vivo, Digitaria sanguinalis; conditions: for Crabgrass, Large plant response rating: postemergence
Method in brief: as §3

giant foxtail [8] = assay: Test B pre-/postemergence herbicide test; assay type: in vivo, Setaria faberi; conditions: for Foxtail, Giant plant response rating: postemergence
Method in brief: as §3

lambsquarters = assay: Test B pre-/postemergence herbicide test; assay type: in vivo, Chenopodium album; conditions: for Lambsquarters plant response rating: postemergence
Method in brief: as §3

morningglory [9] = assay: Test B pre-/postemergence herbicide test; assay type: in vivo, Ipomoea coccinea; conditions: for Morningglory plant response rating: postemergence
Method in brief: as §2

pigweed = assay: Test B pre-/postemergence herbicide test; assay type: in vivo, Amaranthus retroflexus; conditions: for Pigweed plant response rating: postemergence
Method in brief: as §3

rice [10] = assay: Test B pre-/postemergence herbicide test; assay type: in vivo, Oryza sativa; conditions: 0 = no effect, 100 = complete control, preemergence
Method in brief: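 Species tested were Echinochloa crus-galli, Ipomoea coccinea, Xanthium strumarium and Oryza sativa, treated both before emergence and at the 1- to 4-leaf stage; rice and barnyardgrass were also tested under flooding at 2 leaves. Greenhouse incubation lasted 13–15 days before visual 0–100 scoring.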

velvetleaf [11] = assay: Test B pre-/postemergence herbicide test; assay type: in vivo, Abutilon theophrasti; conditions: for Velvetleaf plant response rating: postemergence
Method in brief: as §3

blackgrass = assay: Test B postemergence herbicide test; assay type: in vivo, Alopecurus myosuroides; conditions: postemergence
Method in brief: (§4)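 Postemergence plants were sprayed with formulated test chemicals at 2 to 18 cm height (1- to 4-leaf stage); paddy species were grown to the 2-leaf stage. After 13 to 15 days in a greenhouse, injury was rated visually against untreated controls on a 0–100 scale (0 = no effect, 100 = complete control).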

wheat = assay: Test B postemergence herbicide test; assay type: in vivo, Triticum aestivum; parameters: key to Wheat plant response rating: 0 = no effect, 100 = complete control; conditions: postemergence
Method in brief: as §4

wild oat = assay: Test B postemergence herbicide test; assay type: in vivo, Avena fatua; conditions: postemergence
Method in brief: as §4

rice [12] = assay: Test B flooded paddy test; assay type: in vivo, Oryza sativa; conditions: 1000 g ai/ha, scale 0 to 100 (0 no effect, 100 complete control)
Method in brief: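 Greenhouse test; postemergence application to plants at 1–4 leaves (2–18 cm); paddy species at 2 leaves; evaluated visually vs controls at 13–15 days; scale 0–100 (100 = complete control).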

[13] = system: small flower umbrella sedge; assay: Test B flooded paddy test; assay type: in vivo, Cyperus difformis; conditions: 1000 g ai/ha, scale 0 to 100 (0 no effect, 100 complete control)
Method in brief: as §4

ducksalad = assay: Test B flooded paddy test; assay type: in vivo, Heteranthera limosa; conditions: 1000 g ai/ha, scale 0 to 100 (0 no effect, 100 complete control)
Method in brief: as §4

barnyardgrass [14] = assay: Test B flooded paddy test; assay type: in vivo, Echinochloa crus-galli; conditions: 1000 g ai/ha, scale 0 to 100 (0 no effect, 100 complete control)
Method in brief: as §4

[15] = Postemergence, 500 g ai/ha, 0 to 100 scale, 0 no effect, 100 complete control
[16] = Postemergence, 2000 g ai/ha, 0 to 100 scale, 0 no effect, 100 complete control
[17] = Preemergence, 2000 g ai/ha, visual rating, 0 to 100 scale (0 no effect, 100 complete control)
[18] = preemergence, 500 g ai/ha, visual injury, 0 to 100 scale (0 no effect, 100 complete control)
[19] = 125 g ai/ha, 0 = no effect, 100 = complete control, preemergence
[20] = 500 g ai/ha, visual rating, 0 = no effect, 100 = complete control, preemergence
[21] = 125 g ai/ha, visual rating, scale 0 (no effect) to 100 (complete control)
[22] = 500 g ai/ha, scale 0 to 100, 0 is no effect, 100 is complete control

C#CCNC(=O)c1ccc(F)c(NC(=O)c2cc(C(C)(C)C)nn2CC)n1 [Compound 279]
Barnyardgrass plant response rating (barnyardgrass [1]; [15]): 20
Plant response rating, Barnyardgrass (barnyardgrass [1]; [16]): 40
Barnyardgrass plant response rating (barnyardgrass [1]; [17]): 55
Barnyardgrass plant response rating (barnyardgrass [1]; [18]): 5
Crabgrass, Large plant response rating (large crabgrass [2]; [15]): 10
Plant response rating, Crabgrass, Large (large crabgrass [2]; [16]): 20
Crabgrass, Large plant response rating (large crabgrass [2]; [17]): 70
Crabgrass, Large plant response rating (large crabgrass [2]; [18]): 70
Foxtail, Giant plant response rating (giant foxtail [3]; [15]): 10
Plant response rating, Foxtail, Giant (giant foxtail [3]; [16]): 20
Foxtail, Giant plant response rating (giant foxtail [3]; [17]): 60
Foxtail, Giant plant response rating (giant foxtail [3]; [18]): 25
Morningglory plant response rating (morningglory [4]; [15]): 5
Plant response rating, Morningglory (morningglory [4]; [16]): 5
Morningglory plant response rating (morningglory [4]; [17]): 20
Morningglory plant response rating (morningglory [4]; [18]): 10
Pigweed plant response rating (redroot pigweed; [15]): 70
Plant response rating, Pigweed (redroot pigweed; [16]): 60
Pigweed plant response rating (redroot pigweed; [17]): 100
Pigweed plant response rating (redroot pigweed; [18]): 95
Velvetleaf plant response rating (velvetleaf [5]; [15]): 20
Plant response rating, Velvetleaf (velvetleaf [5]; [16]): 20
Velvetleaf plant response rating (velvetleaf [5]; [17]): 30
Velvetleaf plant response rating (velvetleaf [5]; [18]): 10
Barnyardgrass plant response rating (0 to 100 scale) (barnyardgrass [6]; [19]): 20
Plant response rating, Barnyardgrass (barnyardgrass [6]; [20]): 40
Barnyardgrass plant response rating (barnyardgrass [6]; [21]): 0
Barnyardgrass plant response rating (barnyardgrass [6]; [22]): 10
Surinam Grass plant response rating (0 to 100 scale) (Surinam grass; [19]): 0
Plant response rating, Surinam Grass (Surinam grass; [20]): 40
Surinam Grass plant response rating (Surinam grass; [21]): 10
Surinam Grass plant response rating (Surinam grass; [22]): 10
Cocklebur plant response rating (0 to 100 scale) (cocklebur; [19]): 0
Plant response rating, Cocklebur (cocklebur; [20]): 0
Cocklebur plant response rating (cocklebur; [21]): 0
Cocklebur plant response rating (cocklebur; [22]): 20
Corn plant response rating (0 to 100 scale) (corn; [19]): 0
Plant response rating, Corn (corn; [20]): 0
Corn plant response rating (corn; [21]): 10
Corn plant response rating (corn; [22]): 10
Crabgrass, Large plant response rating (0 to 100 scale) (large crabgrass [7]; [19]): 10
Plant response rating, Crabgrass, Large (large crabgrass [7]; [20]): 80
Crabgrass, Large plant response rating (large crabgrass [7]; [21]): 0
Crabgrass, Large plant response rating (large crabgrass [7]; [22]): 10
Foxtail, Giant plant response rating (0 to 100 scale) (giant foxtail [8]; [19]): 10
Plant response rating, Foxtail, Giant (giant foxtail [8]; [20]): 30
Foxtail, Giant plant response rating (giant foxtail [8]; [21]): 0
Foxtail, Giant plant response rating (giant foxtail [8]; [22]): 0
Lambsquarters plant response rating (0 to 100 scale) (lambsquarters; [19]): 100
Plant response rating, Lambsquarters (lambsquarters; [20]): 100
Lambsquarters plant response rating (lambsquarters; [21]): 10
Lambsquarters plant response rating (lambsquarters; [22]): 20
Morningglory plant response rating (0 to 100 scale) (morningglory [9]; [19]): 0
Plant response rating, Morningglory (morningglory [9]; [20]): 0
Morningglory plant response rating (morningglory [9]; [21]): 0
Morningglory plant response rating (morningglory [9]; [22]): 20
Pigweed plant response rating (0 to 100 scale) (pigweed; [19]): 90
Plant response rating, Pigweed (pigweed; [20]): 100
Pigweed plant response rating (pigweed; [21]): 30
Pigweed plant response rating (pigweed; [22]): 30
Rice plant response rating (0 to 100 scale) (rice [10]; 125 g ai/ha): 20
Plant response rating, Rice (rice [10]; 500 g ai/ha, visual rating): 50
Velvetleaf plant response rating (0 to 100 scale) (velvetleaf [11]; [19]): 0
Plant response rating, Velvetleaf (velvetleaf [11]; [20]): 20
Velvetleaf plant response rating (velvetleaf [11]; [21]): 10
Velvetleaf plant response rating (velvetleaf [11]; [22]): 10
Blackgrass plant response rating (blackgrass; [21]): 10
Blackgrass plant response rating (blackgrass; [22]): 30
Wheat plant response rating (wheat; [21]): 30
Wheat plant response rating (wheat; [22]): 30
Oat, Wild plant response rating (wild oat; [21]): 20
Oat, Wild plant response rating (wild oat; [22]): 20
Rice plant response rating (rice [12]): 40
Sedge, Umbrella plant response rating [13]: 60
Ducksalad plant response rating (ducksalad): 60
Barnyardgrass plant response rating (barnyardgrass [14]): 10
